US20190119348A1, “PARATHYROID HORMONE RECEPTOR 1 ANTAGONIST AND INVERSE AGONIST POLYPEPTIDES AND METHODS OF THEIR USE” (The General Hospital Corporation, priority 2016, published 2019)
Where a SMILES comes first, the peptide text is derived from it. [ ]: non-standard residue; d: D form. Nle = CCCC[C@H](N)C(=O)O

Biological target: T1, endogenous hPTHR1 (Homo sapiens, UniProt Q03431)
T1 construct: Saos-2, in which is endogenously expressed the hPTHR1; endogenous in cells
T1 sequence (Q03431 27-593): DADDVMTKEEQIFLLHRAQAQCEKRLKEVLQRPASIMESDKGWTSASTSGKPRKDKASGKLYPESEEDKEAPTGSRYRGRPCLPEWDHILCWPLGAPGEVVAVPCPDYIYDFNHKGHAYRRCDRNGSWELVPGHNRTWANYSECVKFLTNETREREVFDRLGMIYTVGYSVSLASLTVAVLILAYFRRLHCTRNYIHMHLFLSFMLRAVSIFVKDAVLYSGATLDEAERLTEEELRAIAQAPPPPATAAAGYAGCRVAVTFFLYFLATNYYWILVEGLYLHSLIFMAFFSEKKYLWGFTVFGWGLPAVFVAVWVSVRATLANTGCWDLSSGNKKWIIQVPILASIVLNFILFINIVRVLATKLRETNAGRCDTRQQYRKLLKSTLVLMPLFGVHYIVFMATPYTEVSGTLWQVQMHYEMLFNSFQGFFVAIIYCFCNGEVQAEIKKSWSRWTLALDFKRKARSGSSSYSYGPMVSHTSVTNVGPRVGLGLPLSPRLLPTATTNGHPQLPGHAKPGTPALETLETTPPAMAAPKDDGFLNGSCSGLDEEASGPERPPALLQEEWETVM
Experiment: Antagonism of PTH(1-34)- and PTHrP(1-36)-induced cAMP response (GloSensor) in SGS-72 cells
Assay type: cell-based
Settings: IC50 PTH(1-34) (Table 6, nanomolar value), antagonist pre-treatment 15 minutes, PTH(1-34) 0.3 nM
How it was run: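 SaOS2-derived SGS-72 cells, which express endogenous hPTHR1 and a stable GloSensor cAMP reporter, were loaded with 0.5 mM luciferin for 15 min at room temperature in CO2-independent medium with 0.1% BSA. Antagonist was tested against PTH(1-34) or PTHrP(1-36), with luminescence taken at the agonist-alone maximum; pIC50 came from four-parameter fits.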

Compound: CCCC[C@H](NC(=O)[C@@H](N)CC(C)C)C(=O)N[C@@H](Cc1c[nH]cn1)C(=O)N[C@@H](CCC(N)=O)C(=O)N[C@@H](CCCNC(=N)N)C(=O)N[C@H](Cc1c[nH]c2ccccc12)C(=O)N[C@@H](CCCCN)C(=O)N[C@@H](Cc1c[nH]c2ccccc12)C(=O)N[C@H](C(=O)N[C@@H](CCC(N)=O)C(=O)N[C@@H](CC(=O)O)C(=O)N[C@@H](C)C(=O)N[C@@H](CCCNC(=N)N)C(=O)N[C@@H](CCCNC(=N)N)C(=O)N[C@@H](CCCNC(=N)N)C(=O)N[C@@H](C)C(=O)N[C@@H](Cc1c[nH]c2ccccc12)C(=O)N[C@@H](CC(C)C)C(=O)N[C@@H](Cc1c[nH]cn1)C(=O)N[C@@H](CCCCN)C(=O)N[C@@H](CC(C)C)C(=O)N[C@H](C(=O)N[C@@H](C)C(=O)N[C@@H](CCC(=O)O)C(=O)N[C@H](C(=O)N[C@@H](Cc1c[nH]cn1)C(=O)N[C@H](C(=O)N[C@@H](C)C(=O)N[C@@H](CCC(=O)O)C(=O)N[C@H](C(N)=O)[C@@H](C)CC)[C@@H](C)O)[C@@H](C)CC)[C@@H](C)CC)[C@@H](C)CC [compound 1992, Nle8, dW12, W23-LA-PTH(7-36)-1992] (H-L[Nle]HQR[dW]KWIQDARRRAWLHKLIAEIHTAEI-NH2; N-terminus assumed)
- IC50: 1.55 nM
